# Test results from patent US20210338648A1, “METHODS AND COMPOSITIONS FOR REDUCING SERUM URIC ACID” (AstraZeneca AB, priority 2018, published 2021).
# “Also recorded” adds a separate entry of the source.
# Legend:
# [1] = Phase 2 crossover study: serum uric acid (sUA) after 7 days of treatment; type: in vivo, human; details: dapagliflozin added to verinurad + febuxostat; D7
# Excerpt: (§1) Thirty-six asymptomatic hyperuricemic patients aged 18 to 65 years (inclusive) were enrolled into this study at two study centers. Twenty-four patients were enrolled and completed the study. Due to inadequate urine sampling, 12 additional patients were included to ensure an adequate sample size (at least 20 evaluable patients) to evaluate the effects of intensive UA lowering with verinurad, febuxostat and dapagliflozin on urinary excretion of UA. With 24 completers available during the interim analysis, this will provide for a total sample size of 36 evaluable patients.
# • 1. […] At screening: One sUA assessment. […] Area under plasma concentration time curve over a dosing interval (24 hours) (AUCτ) assessment for verinurad and its main metabolites, febuxostat, and dapagliflozin [Time Frame: On Treatment Period 1 and 2: Day 7 (Pre-dose and 15 minutes, 30 minutes, 1 hour, 1.5, 2, 3, 4, 8, 12 and 24 hours post-dose)] • To assess AUCT after administration of single oral fixed dose of verinurad+febuxostat+dapagliflozin/placebo • 3. […]
# [2] = co-administration, Day 7
# Procedure: This study was a randomized, placebo controlled, double-blind, 2-way crossover study conducted on asymptomatic hyperuricemic patients.
# On Day −2 of Treatment period 1, patients were randomized (1:1) to 1 of 2 treatment sequences (AB or BA). […] On Day 1, after all dosing and all assessments were performed, patients received instruction to administer the IMP at home once daily in the morning from Day 2 to Day 6 and the IMP dispensed for home dosing. Patients returned to the Clinical Unit on Day 6 and were residential in the Clinical Unit from Day 6 to Day 8.
# [3] = Phase 2 crossover study: urinary excretion of uric acid (uUA); type: in vivo, human
# Excerpt: Thirty-six asymptomatic hyperuricemic patients aged 18 to 65 years (inclusive) were enrolled into this study at two study centers. Twenty-four patients were enrolled and completed the study. Due to inadequate urine sampling, 12 additional patients were included to ensure an adequate sample size (at least 20 evaluable patients) to evaluate the effects of intensive UA lowering with verinurad, febuxostat and dapagliflozin on urinary excretion of UA. With 24 completers available during the interim analysis, this will provide for a total sample size of 36 evaluable patients. Before any study specific assessments were performed, potential patients provided informed consent. Each patient underwent the below mentioned visits: • A Screening period of maximum 28 days; • Two treatment periods during which patients were resident in the Clinical Unit from Day −2 to Day 1 and from Day 6 to Day 8; and • A Follow-up Visit within 14 to 28 days after the first administration of Investigational Medicinal Product (IMP) in Treatment Period 2. […] Treatment Period 1 and Treatment Period 2 were separated by a washout period of 7 to 21 days. • 1.
# [4] = Phase 2 crossover study: safety and tolerability (adverse events, serum creatinine, serum sodium); type: in vivo, human; details: Grp1 vs Grp2
# Excerpt: as §1, with “patients. […] At screening: One sUA assessment. […] On Treatment Period 1 and 2: […] On Treatment Period 1 and 2: […] Systolic blood pressure [SBP] […] Diastolic blood pressure [DBP]” for “patients.”
structure (smiles),measurement,setting,value
CCOc1ccc(Cc2cc([C@@H]3O[C@H](CO)[C@@H](O)[C@H](O)[C@H]3O)ccc2Cl)cc1 [dapagliflozin],sUA levels (result in words),[1],significantly reduced; also recorded: additional sUA lowering
same,effect on febuxostat pharmacokinetics,[2],did not affect
same,effect on verinurad pharmacokinetics,[2],did not affect
same,peak uUA excretion (result in words),"[3]; dapagliflozin 10 mg/day added to verinurad 9 mg/day + febuxostat 80 mg/day, D7",no increase; also recorded: without an increase in uUA excretion
same,total 24 h uUA excretion (result in words),"[3]; dapagliflozin added to verinurad + febuxostat vs placebo, 24 h urine, all subjects",no difference
same,"serum creatinine (sCr), between-group difference",[4],"without an increase in uUA excretion, or changes in sCr"
